Reference: patent US20130315829A1, “Compounds and Methods for Detecting Reactive Oxygen Species” (The Regents of the University of California, priority 2010, published 2013)

Key:
LNCaP-luc cells [1] = test: Bioluminescence of LNCaP-luc cells with PCL-1 and exogenous H2O2; type: cell-based, human; conditions: PCL-1 50 μM
Experimental: A Xenogen IVIS Spectrum instrument (Caliper Life Sciences, Hopkinton, Mass.) was used for bioluminescent imaging in all ex vivo experiments. LNCaP-luc cells (kindly provided by Chris Contag, Stanford University) were cultured in Dulbecco's Modified Eagle Medium (DMEM) containing 10% Fetal Bovine Serum (FBS). Cells were split twice per week. Prior to assaying, cells were passed and plated (4×10^4 cells/well) in black 96-well plates with clear bottoms (Becton Dickinson and Company, Franklin Lakes, N.J.). Two days after being plated, once the cells were ca. 95% confluent, the medium was removed and PCL-1 (2.5% final DMSO concentration) and H2O2 (2.5-500 μM final concentrations) in DMEM (−FBS) were added. The plate was immediately imaged for 2 hours. For stimulation experiments, the cells (ca. 95 confluent) were incubated with paraquat (0 or 500 μM, 100 μL DMEM+10% FBS) for 24 hours prior to the addition of PCL-1 (50 μM) with or without catalase (1×10̂4 U/L).
With data showing that PCL-1 is a selective and sensitive bioluminescent reporter for H2O2 in aqueous solution, this system was applied to imaging changes in H2O2 levels in cell culture. […] To achieve this goal, PCL-1 and H2O2 were added to LNCaP-luc cells stably transfected with the firefly luciferase gene. In the absence of H2O2, the bioluminescent signal from the cells was negligible. In contrast, addition of 2.5 to 500 μM H2O2 triggers a linear increase, up to 250 μM, in the total observed photon flux (FIG. 3). The 2.5 μM detection limit for H2O2 is well within estimated concentration ranges of endogenously produced H2O2 fluxes.
Total photon flux, integrated over 2 h, from LNCaP-luc cells with PCL-1 (50 μM) and H2O2 (2.5-500 μM) in DMEM. All values show statistically significant differences (p<0.001) except between 250 and 500 μM H2O2. (b) Total photon flux, integrated over 2 h, from LNCaP-luc cells incubated with paraquat (0 or 500 μM) for 24 h, followed by addition of PCL-1 (50 μM)±catalase (1×10̂4 U/L). […]

[2] = In vitro ROS selectivity test with purified firefly luciferase: H2O2; type: biochemical; conditions: PCL-1 5 μM, H2O2 100 μM, over an hour, then firefly luciferase; light integrated over 45 minutes
Experimental: (§1) Millipore water was used to prepare all aqueous solutions. Measurements for in vitro tests were performed in 50 mM Tris buffer, pH 7.4, with 10 mM MgCl2, 0.1 mM ZnCl2, and 2 mM ATP at 37° C. Bioluminescent measurements for in vitro tests were recorded using a Molecular Devices SpectraMax M2 plate reader (Sunnyvale, Calif.). Samples for bioluminescent measurements were placed in white, opaque 96-well plates, which were purchased from Corning Inc. (Corning, N.Y.). ATP was purchased from MP Biomedicals (Solon, Ohio), and luciferase was purchased from Promega (Madison, Wis.).
(§2) Various reactive oxygen species (ROS, 100 μM) were administered to PCL-1 (5 μM) in the Tris buffer as follows. Hydrogen peroxide (H2O2), tert-butyl hydroperoxide (TBHP), and hypochlorite (OCl^−) were delivered from 30%, 70%, and 6.15% aqueous solutions, respectively. […]
(§3) Initial experiments tested the ability of PCL-1 to detect H2O2 in a selective and concentration-dependent manner. […] PCL-1 was incubated with various ROS for 5-60 minutes followed by addition of firefly luciferase, and then light production was measured over 45 minutes to determine whether luciferin was produced during the ROS incubation period. The total normalized photon flux was calculated by dividing each total photon flux by the zero timepoint total photon flux for each run to allow a direct comparison between various ROS. […]

FVB-luc mice [3] = test: In vivo exogenous H2O2 experiments in FVB-luc mice; parameters: species or system mouse; conditions: PCL-1 i.p. 0.5 μmol
Source text: (§4) A Xenogen IVIS Spectrum instrument (Caliper Life Sciences, Hopkinton, Mass.) was used for bioluminescent imaging in all in vivo experiments. Phosphate Buffered Saline (PBS) was purchased from Thermo Fisher Scientific (Waltham, Mass.). Isoflurane was purchased from Phoenix Pharmaceuticals, Inc. (St. Joseph, Mo.), and sterile DMSO was purchased from Sigma-Aldrich (St. Louis, Mo.). Medical grade oxygen was purchased from Praxair (Danbury, Conn.).
(§5) Animals. FVB-luc (FVB-Tg(CAG-luc,-GFP)L2G85Chco/J) mice were obtained from UC Davis, and SHO mice were obtained from Charles River Labs. Mice were single or group-housed on a 12:12 light-dark cycle at […] with free access to food and water. All studies were approved and performed according to the guidelines of the Animal Care and Use Committee of the University of California, Berkeley.
Adult FVB-luc mice were anesthetized with isoflurane and injected (i.p.) with PCL-1 (0.5 μmol, 50 μL 1:1 DMSO:PBS), followed immediately by an i.p. injection of H2O2 (0.0375, 0.15, 0.6, and 2.4 μmol in 100 μL PBS). Control mice were injected with PCL-1 and 100 μL PBS.
(§6) PCL-1 was applied to molecular imaging of H2O2 in living animals. Initial studies utilized FVB-luc mice that ubiquitously express firefly luciferase along with exogenous peroxide addition. […]

LNCaP-luc tumors = test: LNCaP-luc tumor xenograft model in SHO mice; type: in vivo, mouse
Experimental: Animals. […] Mice were single or group-housed on a 12:12 light-dark cycle at 71° C. with free access to food and water.
Tumor xenografts were created via i.p. injection of 3×10̂6 LNCaP-luc cells (100 μL, 1:1 PBS:Matrigel) in adult SHO mice. Tumor size was monitored by injecting 0.5-5 μmol D-lucifeirn (potassium salt, Gold Biotech., St. Louis, Mo.) in PBS. At least two weeks post-inoculation, tumors were injected with PCL-1, valeryl luciferin, testosterone propionate and N-acetylcysteine in various combinations to obtain the experimental data. On day one of the experiments, mice were injected with either PCL-1 (0.5 μmol) or valeryl luciferin (0.44 μmol) and imaged for 45 minutes using an IVIS spectrum. To determine the effect of testosterone on the tumors, the mice were injected with testosterone propionate (3 mg in 50 μL sesame oil) on day 2, followed 1.5 hours later by an injection of PCL-1 (0.5 μmol) or valeryl luciferin (0.44 μmol). Controls for the testosterone experiment were completed by injecting sesame oil (50 μL) on day 2, followed by the probe (0.5 μmol) or valeryl luciferin (0.44 μmol) 1.5 hours later. Additional experiments with N-acetylcysteine were completed by injecting the mice with testosterone propionate (3 mg in 50 μL sesame oil) on day 2, followed 1.5 hours later by injections of N-acetylcysteine (0.2 mg in 100 μL PBS) and PCL-1 (0.5 μmol). Day 2 injections were followed by 45 minutes of imaging.
To study the stimulatory effects of testosterone and H2O2 production in prostate cancer in living animals, an intraperitoneal (i.p.) LNCaP-luc tumor xenograft model was developed in immunodeficient severe combined immunodeficiency hairless outbred (SHO) mice. To determine the baseline levels of H2O2 generation in the tumors as well as alterations in H2O2 fluxes over 24 hours, mice were injected with PCL-1 on Day 1 and with sesame oil, a vehicle used for all experiments, and PCL-1 after 24 hours on Day 2. […] The effects of testosterone (in the form of testosterone propionate) on H2O2 production were tested within the prostate cancer tumors. For these experiments, mice were injected with PCL-1 on Day 1 and the baseline signal was measured. On Day 2, the mice were injected either with testosterone propionate and then PCL-1, or empty vehicle and PCL-1.
These experiments were performed by injecting mice on Day 2 with testosterone propionate, followed by serial application of NAC and PCL-1.

[4] = In vitro ROS selectivity test with purified firefly luciferase: other ROS; type: biochemical; conditions: PCL-1 5 μM, ROS 100 μM, 5-60 minutes, then firefly luciferase
Experimental: as §1, §2, §3

LNCaP-luc cells [5] = test: Paraquat stimulation of endogenous H2O2 in LNCaP-luc cells, with or without catalase; type: cell-based, human
Experimental: A Xenogen IVIS Spectrum instrument (Caliper Life Sciences, Hopkinton, Mass.) was used for bioluminescent imaging in all ex vivo experiments. […] Cells were split twice per week. Prior to assaying, cells were passed and plated (4×10^4 cells/well) in black 96-well plates with clear bottoms (Becton Dickinson and Company, Franklin Lakes, N.J.). Two days after being plated, once the cells were ca. 95% confluent, the medium was removed and PCL-1 (2.5% final DMSO concentration) and H2O2 (2.5-500 μM final concentrations) in DMEM (−FBS) were added. The plate was immediately imaged for 2 hours. For stimulation experiments, the cells (ca. 95 confluent) were incubated with paraquat (0 or 500 μM, 100 μL DMEM+10% FBS) for 24 hours prior to the addition of PCL-1 (50 μM) with or without catalase (1×10̂4 U/L).
To determine whether PCL-1 could detect endogenously produced H2O2 in living cells, LNCaP-luc cells were incubated with 500 μM paraquat for 24 hours, as previous work establishes that paraquat triggers elevations in intracellular H2O2 through disruption of the mitochondrial electron transport chain. Following paraquat stimulation, the LNCaP-luc cells were loaded with PCL-1 and the subsequent bioluminescent signal was detected.
Because luciferin is a cell-permeable small molecule, two possible modes of action for PCL-1 are (i) reaction of this probe with H2O2 in the extracellular medium followed by cellular uptake of the free luciferin product, or (ii) reaction of PCL-1 with intracellular H2O2 to generate luciferin within cells. To probe whether PCL-1 was reacting with H2O2 in the intra- or extracellular space, catalase was added as a cell-impermeable scavenger for extracellular H2O2 with paraquat stimulation.

FVB-luc mice [6] = test: In vivo antioxidant experiments in FVB-luc mice; parameters: species or system mouse; conditions: NAC 0.2 mg i.p. then PCL-1 i.p., total photon flux over one hour
Source text: as §4, §5
Adult FVB-luc mice were anesthetized with isoflurane and injected with N-acetylcysteine (0.2 mg, 100 μL PBS, pH 7-8), followed immediately by an i.p. injection of PCL-1 (5 μmol, 50 μL 1:1 DMSO:PBS). Control mice were injected with 100 μL PBS and PCL-1.
as §6

O=C(O)[C@H]1CSC(c2nc3ccc(OCc4ccc(B(O)O)cc4)cc3s2)=N1 [PCL-1, (S)-2-(6-(4-Boronobenzyloxy)benzo[d]thiazol-2-yl)-4,5-dihydrothiazole-4-carboxylic acid]
detection limit for H2O2 (LNCaP-luc cells [1]): 2.5 µM | H2O2 concentration up to which total observed photon flux increases linearly (LNCaP-luc cells [1]; H2O2 2.5 to 500 μM, integrated over 2 h): up to 250 μM | bioluminescent signal from the cells in the absence of H2O2 (LNCaP-luc cells [1]; no H2O2): negligible | increase in bioluminescent signal (total normalized photon flux) on addition of H2O2 [2]: approximately seven-fold | bioluminescence of mice treated only with PCL-1, no added peroxide (FVB-luc mice [3]): modest but measurable bioluminescence | integrated total photon flux as a function of the H2O2 concentration (FVB-luc mice [3]; then H2O2 i.p., integrated over one hour): dose-dependent increase in signal | change in basal bioluminescent signal from Day 1 to Day 2 (LNCaP-luc tumors; SHO mice with LNCaP-luc tumors, PCL-1 0.5 μmol Day 1, sesame oil and PCL-1 Day 2): no change in basal bioluminescent signal | increase in bioluminescent signal on reaction with the other ROS [4]: little to no increase in signal

CCC(=O)O[C@H]1CC[C@H]2[C@@H]3CCC4=CC(=O)CC[C@]4(C)[C@H]3CC[C@]12C [testosterone propionate]
increase in total photon flux compared to vehicle control mice (LNCaP-luc tumors; SHO mice with LNCaP-luc tumors, testosterone propionate 3 mg in sesame oil, PCL-1 0.5 μmol 1.5 h later): approximately 41%

catalase
bioluminescence signal with catalase plus paraquat compared to paraquat alone (LNCaP-luc cells [5]; 500 μM paraquat 24 h, PCL-1 50 μM, catalase 1×10^4 U/L): decrease in bioluminescence signal | PCL-1 bioluminescence of catalase-treated cells compared to untreated specimens (LNCaP-luc cells [5]; no paraquat, PCL-1 50 μM, catalase 1×10^4 U/L): reduces the level of PCL-1 bioluminescence

C[n+]1ccc(-c2cc[n+](C)cc2)cc1 [paraquat, reference compound]
PCL-1 derived luminescence compared to unstimulated control cells (LNCaP-luc cells [5]; 500 μM paraquat for 24 hours, then PCL-1 50 μM): patently higher

O=C(O)[C@H]1CSC(c2nc3ccc(O)cc3s2)=N1 [luciferin]
time after injection at which the signal peak is reached (LNCaP-luc tumors; LNCaP-luc cells, peak before first imaging timepoint): < 1 min

CC(=O)N[C@@H](CS)C(=O)O [NAC, N-acetylcysteine]
bioluminescent signal of NAC-treated animals compared to vehicle control animals (FVB-luc mice [6]): significantly reduced bioluminescent signal | bioluminescent signal in testosterone-stimulated animals after NAC treatment (LNCaP-luc tumors; SHO mice with LNCaP-luc tumors, testosterone propionate 3 mg, then NAC 0.2 mg and PCL-1 0.5 μmol): reduction in bioluminescent signal in testosterone-stimulated animals back to baseline levels
